# Laboratory results: patent US8889650B2, “Antimelancholic medicine prepared with jujube camp materials” (Beijing Wonner Biotech, Ltd. Co., priority 2007, dated 2014)
# Legend:
# [1] = tested on: ICR mice; assay: Mouse tail-hanging experiment; format: in vivo
# Source text: Experiment 1: The Influence of Embodiment 3 in the Mouse Tail-Hanging Experiment 1.1 Experimental animals: ICR mice, male, 22.0±2 g of body weight, secondary, were provided by the Experimental Animal Science Department of Capital Medical University, Beijing. 1.2 Experiment pharmaceuticals: The pharmaceutical of Embodiment 3 was provided by Beijing Wonner Biotech. Ltd. Co., and Paroxetine (Paxil) was the product of Zhong Mei Tianjin Smith Kline pharmaceuticals Co. Ltd. 1.4 Dose designs: 1. High dose of Embodiment 3 (5 mg/kg/d); 2. middle dose of Embodiment 3 (2.5 mg/kg/d); and 3. low dose of Embodiment 3 (1.25 mg/kg/d). 1.5.1 Group division and administration of drug: The mice were grouped randomly, with 10 mice per group. 1. High dose of Embodiment 3 (5 mg/kg, per oral (P.O.), administered for 7 days); 2. middle dose of Embodiment 3 (2.5 mg/kg, P.O., administered for 7 days); 3. low dose of Embodiment 3 (1.25 mg/kg, P.O., administered for 7 days); 4. Paroxetine (3 mg/kg, P.O., administered for 7 days); and 5. physiological saline (P.O.). After 1 hour of the last drug administration, the mouse tail-hanging experiment was proceeded. […] The time of non-movement of the mouse for the last 5 minutes was recorded. 1.5.3 Statistic calculation: The experimental data are represented as X±SD , and the experimental result was calculated as analysis of variance (ANOVA) by SPSS 11.5 statistic software.
# [2] = tested on: ICR mice; assay: Mouse swimming by compulsion experiment; format: in vivo
# Source text: Experiment 2: The Influence of Embodiment 3 in the Mouse Swimming by Compulsion Experiment 2.1 Experimental animals: ICR mice, male, 22.0±2 g body weight, secondary, were provided by the Experimental Animal Science Department of Capital Medical University, Beijing. 2.2 Experiment pharmaceuticals: The pharmaceutical of Embodiment 3 was provided by Beijing Wonner Biotech. Ltd. Co., and Paroxetine (Paxil) was the product of Zhong Mei Tianjin Smith Kline pharmaceuticals Co. Ltd. 2.4 Dose designs: 1. High dose of Embodiment 3 (5 mg/kg/d); 2. middle dose of Embodiment 3 (2.5 mg/kg/d); and 3. low dose of Embodiment 3 (1.25 mg/kg/d). 2.5.1 Group division and administration of drug: The mice were grouped randomly, with 10 mice per group. 1. High dose of Embodiment 3 (5 mg/kg, P.O., administered for 7 days); 2. middle dose of Embodiment 3 (2.5 mg/kg, P.O., administered for 7 days); 3. low dose of Embodiment 3 (1.25 mg/kg, P.O., administered for 7 days); 4. Paroxetine (3 mg/kg, P.O., administered for 7 days); and 5. physiological saline (P.O.). […] The accumulative time of non-movement of the mouse in the water for the last 5 minutes was recorded. 2.5.3 Statistic calculation: The experimental data are represented as X±SD, and the experimental result was calculated as ANOVA by SPSS 11.5 statistic software.
smiles,measurement,setting,value
Fc1ccc([C@@H]2CCNC[C@H]2COc2ccc3c(c2)OCO3)cc1 [Paroxetine],Time of non-movement,"[1]; Paroxetine 3 mg/kg P.O. for 7 days, tail hung 6 min, last 5 min recorded, 1 hour after last administration, X±SD",67.59 ± 39.09 s
same,Effect on time of non-movement after the mouse's tail was hung (conclusion),"[1]; high and middle doses of Embodiment 3, Paroxetine, significant in comparison with the physiological saline control",decreased the time of non-movement
same,Effect on time of non-movement in the mouse swimming by compulsion test (conclusion),"[2]; high dose of Embodiment 3, Paroxetine",decreased the time of non-movement
same,immobility time,"[2]; table title: time of non-movement in swimming by compulsion, Paroxetine 3 mg/kg P.O. for 7 days, 25° C. water, last 5 minutes, X±SD",83.4 ± 40.7 s
